Experimental data reported in ChEMBL document CHEMBL1134876, “Sequence selective recognition of DNA by hairpin conjugates of a racemic seco-cyclopropaneindoline-2-benzofurancarboxamide and polyamides” (Bioorg Med Chem Lett, 2002).

Key:
[1] = system: P815; assay: Cytotoxicity tested against P815 (murine mastocytoma) cell line using MTT assay; format: functional, cell-based; conditions: Mus musculus
[2] = system: L1210; assay: Cytotoxicity tested against L1210 (murine leukemia) cell line using MTT assay; format: functional, cell-based; conditions: Mus musculus

SMILES | IC50 [1] | IC50 [2]
NCCCCNC(=O)c1cc(NC(=O)c2nc(NC(=O)CCCC(=O)Nc3ccc4oc(C(=O)N5CC(CCl)c6ccc(O)cc65)cc4c3)c[nH]2)c[nH]1 (stereo not drawn) | 77 µM | 45 µM
NCCCCNC(=O)c1cc(NC(=O)c2cc(NC(=O)CCCC(=O)Nc3ccc4oc(C(=O)N5CC(CCl)c6ccc(O)cc65)cc4c3)c[nH]2)c[nH]1 (stereo not drawn) | 41 µM | 28 µM
NCCCCNC(=O)c1nc(NC(=O)c2cc(NC(=O)CCCC(=O)Nc3ccc4oc(C(=O)N5CC(CCl)c6ccc(O)cc65)cc4c3)c[nH]2)c[nH]1 (stereo not drawn) | 9.1 µM | 6.7 µM
NCCCCNC(=O)c1nc(NC(=O)c2nc(NC(=O)CCCC(=O)Nc3ccc4oc(C(=O)N5CC(CCl)c6ccc(O)cc65)cc4c3)c[nH]2)c[nH]1 (stereo not drawn) | 52 µM | 6.8 µM
